{"source": "patent US10450288B2", "about": "“Hydroxy formamide derivatives and their use” (GLAXOSMITHKLINE INTELLECTUAL PROPERTY (NO.2) LIMITED, priority 2014, dated 2019)", "data": [{"system": "human cardiac fibroblasts", "test": "Cell-based inhibition assay of generation of procollagen I C-terminal propeptide (PICP), PICP ELISA", "details": "Cardiac fibroblast; human cardiac fibroblasts, crowding media, 24 to 48 hr, PICP ELISA of media; read-out: pIC50, PICP cellular inhibition assay (converted)", "procedure": "(§1) Cell-Based Inhibition Assay of Generation of Procollagen I C-Terminal Propeptide (PICP) and Mature Collagen:\n(§2) An adaptation of the collagen deposition assay described by Chen, C. Z. C., et al., British Journal of Pharmacology, 2009, 158, 1196-1209 was used to examine effect of compounds on procollagen I processing and collagen deposition. In the adapted assay, human cardiac fibroblasts were utilized. Processing of procollagen I was determined by a PICP ELISA assay and deposition of mature collagen was determined by immunostaining.\n(§3) Human cardiac fibroblasts were cultured and maintained until passage 6 in FGM-3 media (Lonza, #CC-3132) in a 37° C. humidified incubator with 5% CO2. They were then seeded in 96-well black wall, clear bottom plates at 10,000 to 15,000 cells per well in eagle's minimum essential media (EMEM, ATCC #30-2003) containing 10% fetal bovine serum (FBS, Life Technologies #10082147), 1% Glutamax (Life Technologies #35050061) and 1% Penicillin and Streptomycin (Life Technologies #15070063). These cultures were placed in 37° C. incubator. The next day, media were removed by aspiration and cells were rinsed with phosphate buffered saline. Crowding media (also called ficoll media) was prepared by adding 112.5 mg/ml of ficoll70 and 75 mg/ml ficoll400 (GE healthcare #17-0310-10 and 17-0300-10, respectively), 100 μM ascorbic acid, 1% Glutamax and 1% Penicillin and Streptomycin to EMEM media. Test compounds (dissolved in DMSO) were diluted into crowding media and then added to the cells. Final concentration of DMSO in crowding media was less than 0.3%. Cells were treated for 24 to 48 hr in a 37° C. incubator. At the end of the treatment period, cell media were collected. The level of PICP in the media were determined by a PICP ELISA assay (Quidel #8003) following the manufacturer's protocol. Potencies of test compounds were calculated by fitting PICP levels, relative to untreated controls, to log (inhibitor) vs. response equation using Graphpad Prism software 5.0 and expressed as pIC50.", "units": {"IC50": "µM"}, "values": [{"compound": "CCCCC[C@@H](C(=O)NCNC(=O)c1ccc(-c2ccc(C(=O)O)c(OCC)c2)o1)[C@@H](CC)N(O)C=O", "note": "[Example 1, 2-ethoxy-4-(5-((((R)-2-((R)-1-(N-hydroxyformamido)propyl)heptanamido)methyl)carbamoyl)furan-2-yl)benzoic acid]", "IC50": "< 3.98"}, {"compound": "CCCCC[C@H](CN(O)C=O)C(=O)NCNC(=O)c1ccc(-c2cccc(S(N)(=O)=O)c2)o1", "note": "[Example 12, (R)-N-((2-((N-hydroxyformamido)methyl)heptanamido)methyl)-5-(3-sulfamoylphenyl)furan-2-carboxamide]", "IC50": "< 3.98"}, {"compound": "CCCCC[C@H](CN(O)C=O)C(=O)NCNC(=O)c1ccc(-c2cccc(OC(F)(F)F)c2)o1", "note": "[Example 13, (R)-N-((2-((N-hydroxyformamido)methyl)heptanamido)methyl)-5-(3-(trifluoromethoxy)phenyl) furan-2-carboxamide carboxamide]", "IC50": "< 3.98"}, {"compound": "CCCCC[C@H](CN(O)C=O)C(=O)NCNC(=O)c1ccc(-c2cccc(OCC)c2)o1", "note": "[Example 14, (R)-5-(3-ethoxyphenyl)-N-((2-((N-hydroxyformamido)methyl)heptanamido)methyl) furan-2-carboxamide]", "IC50": "< 3.98"}, {"compound": "CCCCC[C@H](CN(O)C=O)C(=O)NCNC(=O)c1ccc(-c2cccc(C(=O)OC)c2)o1", "note": "[Example 16, (R)-methyl 3-(5-(((2-((N-hydroxyformamido)methyl)heptanamido)methyl)carbamoyl)furan-2-yl)benzoate]", "IC50": "< 3.98"}, {"compound": "CCCCC[C@H](CN(O)C=O)C(=O)NCNC(=O)c1ccc(-c2cc(OC)ccn2)o1", "note": "[Example 18, (R)-N-((2-((N-hydroxyformamido)methyl)heptanamido)methyl)-5-(4-methoxypyridin-2-yl)furan-2-carboxamide]", "IC50": "< 3.98"}, {"compound": "CCCCC[C@H](CN(O)C=O)C(=O)NCNC(=O)c1ccc(-c2cccc(S(=O)(=O)NC)c2)o1", "note": "[Example 22, (R)-N-((2-((N-hydroxyformamido)methyl)heptanamido)methyl)-5-(3-(N-methylsulfamoyl)phenyl) furan-2-carboxamide]", "IC50": "< 3.98"}, {"compound": "CCCCC[C@H](CN(O)C=O)C(=O)NCNC(=O)c1ccc(-c2cccc(OCC(F)(F)F)c2)o1", "note": "[Example 23, (R)-N-((2-((N-hydroxyformamido)methyl)heptanamido)methyl)-5-(3-(2,2,2-trifluoroethoxy)phenyl) furan-2-carboxamide]", "IC50": "< 3.98"}, {"compound": "CCCCC[C@H](CN(O)C=O)C(=O)NCNC(=O)c1ccc(-c2cccc(OC(C)C)c2)o1", "note": "[Example 25, (R)-N-((2-((N-hydroxyformamido)methyl)heptanamido)methyl)-5-(3-isopropoxyphenyl)furan-2-carboxamide]", "IC50": "< 3.98"}, {"compound": "CCCCC[C@H](CN(O)C=O)C(=O)NCNC(=O)c1ccc(-c2cc(OCC)cc(C(=O)OC)c2)o1", "note": "[Example 26]", "IC50": "< 3.98"}, {"compound": "CCCCC[C@H](CN(O)C=O)C(=O)NCNC(=O)c1ccc(-c2cccc(N(C)C)c2)o1", "note": "[Example 27, (R)-5-(3-(dimethylamino)phenyl)-N-((2-((N-hydroxyformamido)methyl)heptanamido)methyl) furan-2-carboxamide]", "IC50": "< 3.98"}, {"compound": "CCCCC[C@H](CN(O)C=O)C(=O)NCNC(=O)c1ccc(-c2cccc(S(=O)(=O)NC(=O)CC)c2)o1", "note": "[Example 28, (R)-N-((2-((N-hydroxyformamido)methyl)heptanamido)methyl)-5-(3-(N-propionylsulfamoyl)phenyl)furan-2-carboxamide]", "IC50": "< 3.98"}, {"compound": "CCCCC[C@H](CN(O)C=O)C(=O)NCNC(=O)c1ccc(-c2cc(OCC)cc(C(=O)O)c2)o1", "note": "[Example 30, (R)-3-ethoxy-5-(5-(((2-((N-hydroxyformamido)methyl)heptanamido)methyl)carbamoyl)furan-2-yl)benzoic acid]", "IC50": "< 3.98"}, {"compound": "CCCCC[C@H](CN(O)C=O)C(=O)NCNC(=O)c1ccc(-c2cc(OC)cc(C(=O)NCCN)c2)o1", "note": "[Example 33, (R)-5-(3-((2-aminoethyl)carbamoyl)-5-methoxyphenyl)-N-((2-((N-hydroxyformamido)methyl)heptanamido)methyl) furan-2-carboxamide]", "IC50": "< 3.98"}, {"compound": "CCCCC[C@H](CN(O)C=O)C(=O)NCNC(=O)c1ccc(-c2cc(OCC)cc(C(=O)NCCN)c2)o1", "note": "[Example 34, (R)-5-(3-((2-aminoethyl)carbamoyl)-5-ethoxyphenyl)-N-((2-((N-hydroxyformamido)methyl)heptanamido)methyl) furan-2-carboxamide]", "IC50": "< 3.98"}, {"compound": "CCCCC[C@H](CN(O)C=O)C(=O)NCNC(=O)c1ccc(-c2cccc(OC(F)F)c2)o1", "note": "[Example 35, (R)-5-(3-(difluoromethoxy)phenyl)-N-((2-((N hydroxyformamido)methyl)heptanamido)methyl) furan-2-carboxamide]", "IC50": "< 3.98"}, {"compound": "CCCCC[C@@H](C(=O)NCNC(=O)c1ccc(-c2cc(OCC)cc(C(=O)NCCN)c2)o1)[C@@H](CC)N(O)C=O", "note": "[Example 40, 5-(3-((2-aminoethyl)carbamoyl)-5-ethoxyphenyl)-N-(((R)-2-((R)-1-(N-hydroxyformamido)propyl)heptanamido)methyl) furan-2-carboxamide]", "IC50": "< 3.98"}, {"compound": "CCCCC[C@@H](C(=O)NCNC(=O)c1ccc(-c2ccc(CC(=O)O)c(OCC)c2)o1)[C@@H](CC)N(O)C=O", "note": "[Example 41, 2-(2-ethoxy-4-(5-((((R)-2-((R)-1-(N-hydroxyformamido)propyl)heptanamido)methyl)carbamoyl)furan-2-yl)phenyl)acetic acid]", "IC50": "< 3.98"}, {"compound": "CCCCC[C@@H](C(=O)NCNC(=O)c1ccc(-c2ccc(CC(=O)O)cc2)o1)[C@@H](CC)N(O)C=O", "note": "[Example 42, 2-(4-(5-((((R)-2-((R)-1-(N-hydroxyformamido)propyl)heptanamido)methyl)carbamoyl)furan-2-yl)phenyl)acetic acid]", "IC50": "< 3.98"}, {"compound": "CCCCC[C@@H](C(=O)NCNC(=O)c1ccc(-c2ccc(C(C)(C)C(=O)O)cc2)o1)[C@@H](CC)N(O)C=O", "note": "[Example 43, 2-(4-(5-((((R)-2-((R)-1-(N-hydroxyformamido)propyl)heptanamido)methyl)carbamoyl)furan-2-yl)phenyl)-2-methylpropanoic acid]", "IC50": "< 3.98"}, {"compound": "CCCCC[C@@H](C(=O)NCNC(=O)c1ccc(-c2ccc(C3(C(=O)O)CC3)cc2)o1)[C@@H](CC)N(O)C=O", "note": "[Example 44, 1-(4-(5-((((R)-2-((R)-1-(N-hydroxyformamido)propyl)heptanamido)methyl)carbamoyl)furan-2-yl)phenyl)cyclopropane-carboxylic acid]", "IC50": "< 3.98"}, {"compound": "CCCCC[C@@H](C(=O)NCNC(=O)c1ccc(-c2cc(OCC)cc(C(=O)N[C@@H](CCC(=O)O)C(=O)OC(C)(C)C)c2)o1)[C@@H](CC)N(O)C=O", "note": "[Example 45, (S)-5-(tert-butoxy)-4-(3-ethoxy-5-(5-((((R)-2-((R)-1-(N-hydroxyformamido)propyl)heptanamido)methyl)carbamoyl)furan-2-yl)benzamido)-5-oxopentanoic acid]", "IC50": "< 3.98"}, {"compound": "CCCCC[C@@H](C(=O)NCNC(=O)c1ccc(-c2cc(OCC)cc(C(=O)N[C@@H](CCC(=O)OC)C(=O)OC)c2)o1)[C@@H](CC)N(O)C=O", "note": "[Example 48, (S)-dimethyl 2-(3-ethoxy-5-(5-((((R)-2-((R)-1-(N-hydroxyformamido)propyl)heptanamido)methyl)carbamoyl)furan-2-yl)benzamido) pentanedioate]", "IC50": "< 3.98"}, {"compound": "CCCCC[C@@H](C(=O)NCNC(=O)c1ccc(-c2cc(OCC)cc(C(F)(F)C(=O)O)c2)o1)[C@@H](CC)N(O)C=O", "note": "[Example 49, 2-(3-ethoxy-5-(5-((((R)-2-((R)-1-(N-hydroxyformamido)propyl)heptanamido)methyl)carbamoyl)furan-2-yl)phenyl)-2,2-difluoroacetic acid]", "IC50": "< 3.98"}, {"compound": "CCCCC[C@H](CN(O)C=O)C(=O)NCNC(=O)c1ccc(-c2ccc(F)c(C(=O)OC)c2)o1", "note": "[Example 51, (R)-methyl 2-fluoro-5-(5-(((2-((N-hydroxyformamido)methyl)heptanamido)methyl)carbamoyl)furan-2-yl)benzoate]", "IC50": "< 3.98"}]}, {"system": "human cardiac fibroblasts", "test": "Cell-based inhibition assay of generation of procollagen I C-terminal propeptide (PICP), PICP ELISA", "details": "Homo sapiens, Cardiac fibroblast, read-out: pIC50, PICP cellular inhibition assay (converted)", "procedure": "as §1, §2, §3", "units": {"IC50": "µM"}, "values": [{"compound": "CCCCC[C@H](CN(O)C=O)C(=O)NCNC(=O)c1ccc(-c2cc(OC)cc(C(=O)O)c2)o1", "note": "[Example 29, (R)-3-(5-(((2-((N-hydroxyformamido)methyl)heptanamido)methyl)carbamoyl)furan-2-yl)-5-methoxybenzoic acid]", "IC50": "< 3.98"}, {"compound": "CCCCC[C@@H](C(=O)NCNC(=O)c1ccc(-c2cc(OCC)cc(P(=O)(OC)OC)c2)o1)[C@@H](CC)N(O)C=O", "note": "[Example 50, dimethyl (3-ethoxy-5-(5-((((R)-2-((R)-1-(N-hydroxyformamido)propyl)heptanamido)methyl)carbamoyl)furan-2-yl)phenyl)phosphonate]", "IC50": "< 3.98"}]}]}
